Measured values from PubChem BioAssay (NCI).
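1) Cells in 96-well plates. 2) Compound, 48 h, 5 concentrations. 3) Linear interpolation between surrounding doses. 4) Unreached endpoint = highest concentration. TGI is the concentration that stops growth completely.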

Legend:
Experiment in all cases: growth of human tumour cells (NCI), 48 h
OVCAR-3 ovarian = tested on: OVCAR-3 ovarian
HL-60(TB) leukemia = tested on: HL-60(TB) leukemia
NCI-H23 lung = tested on: NCI-H23 lung
HCC-2998 colon = tested on: HCC-2998 colon
IGROV1 ovarian = tested on: IGROV1 ovarian
KM12 colon = tested on: KM12 colon
DMS 114 small cell lung = tested on: DMS 114 small cell lung
LOX IMVI melanoma = tested on: LOX IMVI melanoma
M19-MEL melanoma = tested on: M19-MEL melanoma
MALME-3M melanoma = tested on: MALME-3M melanoma
NCI-H226 lung = tested on: NCI-H226 lung
SNB-78 CNS = tested on: SNB-78 CNS
NCI-H522 lung = tested on: NCI-H522 lung
UACC-257 melanoma = tested on: UACC-257 melanoma
CCRF-CEM leukemia = tested on: CCRF-CEM leukemia
LXFL 529 NSCLC = tested on: LXFL 529 NSCLC
MOLT-4 leukemia = tested on: MOLT-4 leukemia
K-562 leukemia = tested on: K-562 leukemia
A498 renal = tested on: A498 renal
OVCAR-4 ovarian = tested on: OVCAR-4 ovarian
CAKI-1 renal = tested on: CAKI-1 renal
HOP-18 NSCLC = tested on: HOP-18 NSCLC
OVCAR-8 ovarian = tested on: OVCAR-8 ovarian
OVCAR-5 ovarian = tested on: OVCAR-5 ovarian
UO-31 renal = tested on: UO-31 renal
TK-10 renal = tested on: TK-10 renal
HCT-116 colon = tested on: HCT-116 colon
EKVX NSCLC = tested on: EKVX NSCLC
RPMI-8226 leukemia = tested on: RPMI-8226 leukemia
SK-OV-3 ovarian = tested on: SK-OV-3 ovarian
SK-MEL-5 melanoma = tested on: SK-MEL-5 melanoma
HCT-15 colon = tested on: HCT-15 colon
A549 NSCLC = tested on: A549 NSCLC
DMS 273 small cell lung = tested on: DMS 273 small cell lung
HT29 colon = tested on: HT29 colon
SN12C renal = tested on: SN12C renal
SF-539 CNS = tested on: SF-539 CNS
SW-620 colon = tested on: SW-620 colon
M14 melanoma = tested on: M14 melanoma
ACHN renal = tested on: ACHN renal
UACC-62 melanoma = tested on: UACC-62 melanoma
786-0 renal = tested on: 786-0 renal
NCI-H460 lung = tested on: NCI-H460 lung
COLO 205 colon = tested on: COLO 205 colon
SK-MEL-2 melanoma = tested on: SK-MEL-2 melanoma
U251 CNS = tested on: U251 CNS
SF-268 CNS = tested on: SF-268 CNS
XF 498 CNS = tested on: XF 498 CNS
SNB-19 CNS = tested on: SNB-19 CNS
KM20L2 colon = tested on: KM20L2 colon
DLD-1 colon = tested on: DLD-1 colon
SF-295 CNS = tested on: SF-295 CNS
RXF 393 renal = tested on: RXF 393 renal
SR leukemia = tested on: SR leukemia
HOP-62 NSCLC = tested on: HOP-62 NSCLC
SK-MEL-28 melanoma = tested on: SK-MEL-28 melanoma
HOP-92 NSCLC = tested on: HOP-92 NSCLC
SNB-75 CNS = tested on: SNB-75 CNS

Cc1cc(Cl)ccc1NC(=O)CCCC(=O)C1CCCC1=O (stereo unspecified)
TGI (OVCAR-3 ovarian): > 100 µM | TGI (HL-60(TB) leukemia): > 100 µM | TGI (NCI-H23 lung): > 100 µM | TGI (HCC-2998 colon): > 100 µM | TGI (IGROV1 ovarian): > 100 µM | TGI (KM12 colon): > 100 µM | TGI (DMS 114 small cell lung): > 100 µM | TGI (LOX IMVI melanoma): > 100 µM | TGI (M19-MEL melanoma): > 100 µM | TGI (MALME-3M melanoma): > 100 µM | TGI (NCI-H226 lung): > 100 µM | TGI (SNB-78 CNS): > 100 µM | TGI (NCI-H522 lung): > 100 µM | TGI (UACC-257 melanoma): > 100 µM | TGI (CCRF-CEM leukemia): > 100 µM | TGI (LXFL 529 NSCLC): > 100 µM | TGI (MOLT-4 leukemia): > 100 µM | TGI (K-562 leukemia): > 100 µM | TGI (A498 renal): > 100 µM | TGI (OVCAR-4 ovarian): > 100 µM | TGI (CAKI-1 renal): > 100 µM | TGI (HOP-18 NSCLC): > 100 µM | TGI (OVCAR-8 ovarian): > 100 µM | TGI (OVCAR-5 ovarian): > 100 µM | TGI (UO-31 renal): > 100 µM | TGI (TK-10 renal): > 100 µM | TGI (HCT-116 colon): > 100 µM | TGI (EKVX NSCLC): > 100 µM | TGI (RPMI-8226 leukemia): > 100 µM | TGI (SK-OV-3 ovarian): > 100 µM | TGI (SK-MEL-5 melanoma): > 100 µM | TGI (HCT-15 colon): > 100 µM | TGI (A549 NSCLC): > 100 µM | TGI (DMS 273 small cell lung): > 100 µM | TGI (HT29 colon): > 100 µM | TGI (SN12C renal): > 100 µM | TGI (SF-539 CNS): > 100 µM | TGI (SW-620 colon): > 100 µM | TGI (M14 melanoma): > 100 µM | TGI (ACHN renal): > 100 µM | TGI (UACC-62 melanoma): > 100 µM | TGI (786-0 renal): > 100 µM | TGI (NCI-H460 lung): > 100 µM | TGI (COLO 205 colon): > 100 µM | TGI (SK-MEL-2 melanoma): > 100 µM | TGI (U251 CNS): > 100 µM | TGI (SF-268 CNS): > 100 µM | TGI (XF 498 CNS): > 100 µM | TGI (SNB-19 CNS): > 100 µM | TGI (KM20L2 colon): > 100 µM | TGI (DLD-1 colon): > 100 µM | TGI (SF-295 CNS): > 100 µM

O=C(Nc1ccc(Cl)cc1)C(=O)C(C(=O)c1ccccc1-c1ccccc1)C1OC(=O)c2ccccc21 (stereo unspecified)
TGI (HL-60(TB) leukemia): 53.5 µM | TGI (NCI-H23 lung): 53.4 µM | TGI (HCC-2998 colon): 33.8 µM | TGI (IGROV1 ovarian): > 100 µM | TGI (KM12 colon): 39.4 µM | TGI (DMS 114 small cell lung): 38.8 µM | TGI (RXF 393 renal): 24.4 µM | TGI (LOX IMVI melanoma): 36 µM | TGI (M19-MEL melanoma): 41.6 µM | TGI (SR leukemia): 82.9 µM | TGI (NCI-H226 lung): 24 µM | TGI (SNB-78 CNS): > 100 µM | TGI (NCI-H522 lung): 28.3 µM | TGI (UACC-257 melanoma): 61.3 µM | TGI (CCRF-CEM leukemia): 58 µM | TGI (LXFL 529 NSCLC): 34.2 µM | TGI (MOLT-4 leukemia): > 100 µM | TGI (K-562 leukemia): > 100 µM | TGI (A498 renal): 38.7 µM | TGI (OVCAR-4 ovarian): > 100 µM | TGI (CAKI-1 renal): 55.7 µM | TGI (OVCAR-8 ovarian): 29.3 µM | TGI (OVCAR-5 ovarian): 92.4 µM | TGI (UO-31 renal): 36.6 µM | TGI (TK-10 renal): 57.3 µM | TGI (HOP-62 NSCLC): > 100 µM | TGI (HCT-116 colon): 32.1 µM | TGI (EKVX NSCLC): 37.9 µM | TGI (RPMI-8226 leukemia): > 100 µM | TGI (SK-MEL-28 melanoma): 36.6 µM | TGI (SK-OV-3 ovarian): 64.3 µM | TGI (SK-MEL-5 melanoma): 32 µM | TGI (HCT-15 colon): 37.3 µM | TGI (A549 NSCLC): 50.7 µM | TGI (DMS 273 small cell lung): > 100 µM | TGI (HT29 colon): 58.6 µM | TGI (SN12C renal): 62.4 µM | TGI (SF-539 CNS): 58.4 µM | TGI (SW-620 colon): 46.2 µM | TGI (HOP-92 NSCLC): 65.6 µM | TGI (M14 melanoma): 42.4 µM | TGI (ACHN renal): 92.4 µM | TGI (UACC-62 melanoma): 29.5 µM | TGI (NCI-H460 lung): 40.1 µM | TGI (COLO 205 colon): 44.4 µM | TGI (SK-MEL-2 melanoma): 55.5 µM | TGI (U251 CNS): 27.8 µM | TGI (SF-268 CNS): 64.1 µM | TGI (XF 498 CNS): 36.6 µM | TGI (SNB-19 CNS): 38.2 µM | TGI (KM20L2 colon): 55.6 µM | TGI (SNB-75 CNS): 93.3 µM | TGI (DLD-1 colon): > 100 µM | TGI (SF-295 CNS): > 100 µM
